Reference: US7015238B2, “Crystalline organic acid salt of amlodipine” (CJ Corp., priority 2002, dated 2006)
Structures can show the parent of a compound that is named as a salt.

Columns and labels:
Type in all cases: physicochemical
[1] = Evaluation of photostability (exposed to sunlight at 25° C. for 4 weeks, HPLC content); conditions: for Colour of the surface after exposure to light: white at initial stage, exposed to sunlight at 25° C., 4 weeks; for Content (HPLC): stored at 25° C. for 4 weeks with light exposure
Protocol: To evaluate photostability, a change in the content (%, HPLC) of each sample was observed under the same HPLC analysis conditions as in the evaluation of thermal stability. Photostability is quite an important factor in therapeutic agents for treating hypertension because they are administered to patients over a prolonged period of dosage.

[2] = Evaluation of hygroscopicity: water content by Karl Fisher method under various humidity conditions; conditions: 25° C.
[3] = Thermal stability in a solid state, acceleration test at 60° C. (HPLC content)
Protocol: High Performance Liquid Chromatography (HPLC) analysis was conducted under the following conditions:
Detector: UV absorption (237 nm)
Column: Octadesyl silica gel C18 (4.6 mm×150 mm, 5 μm)
Mobile phase: Potassium dihydrogen phosphate monobasic (0.03 M): Methanol=4:6 (by volume)

[4] = Stability in a liquid state (distilled water, 25° C., 4 weeks, protected from light); conditions: dissolved in distilled water, 4 weeks at 25° C.
Source text: The observation was made under the same conditions as in the HPLC analysis for evaluating the thermal stability of samples in a solid state.

Row | SMILES | Colour of the surface after exposure to light [1] | Water content (Karl Fisher method) ([2]; initial stage) [%] | Water content (Karl Fisher method) ([2]; relative humidity 25%, 1 week) [%] | Water content (Karl Fisher method) ([2]; relative humidity 60%, 1 week) [%] | Water content (Karl Fisher method) ([2]; relative humidity 75%, 1 week) [%] | Water content (Karl Fisher method) ([2]; relative humidity 95%, 1 week) [%] | Content (HPLC) ([3]; 60° C., 1 week) [%] | Content (HPLC) ([3]; 60° C., 2 weeks) [%] | Content (HPLC) ([3]; 60° C., 4 weeks) [%] | Content (HPLC) ([3]; initial stage) [%] | Change in the content (HPLC) [4] | Decomposed products [4] | Content (HPLC) [1] [%]
1 | CCOC(=O)C1=C(COCCN)NC(C)=C(C(=O)OC)C1c1ccccc1Cl (stereo not drawn) [Adipic acid salt, crystalline adipic acid salt of amlodipine] | remained white | 0.10 | 0.10 | 0.10 | 0.14 | 0.16 | 99.8 | 99.7 | 99.7 | 99.8 | no significant changes in the content | no decomposed products | –
2 | CCOC(=O)C1=C(COCCN)NC(C)=C(C(=O)OC)C1c1ccccc1Cl (stereo not drawn) [Besylate salt, Amlodipine Besylate, reference compound] | turned yellow | 0.14 | 0.10 | 0.09 | 0.15 | 0.17 | 99.6 | – | – | 99.6 | no significant changes in the content | no decomposed products | 82.5
3 | CCOC(=O)C1=C(COCCN)NC(C)=C(C(=O)OC)C1c1ccccc1Cl (stereo not drawn) [Tosylate salt, Amlodipine p-Toluene Sulfonate] | – | – | – | – | – | – | – | – | – | – | – | – | 72.0
